Measured values: patent publication US20100016298A1, “Theramutein modulators” (priority 2005, published 2010)

The compounds below were run against T1, Ba/F3 cells expressing the p210Bcr-Abl-T315I theramutein (Homo sapiens, UniProt P00519, T315I, cells depend on it) (assay: cellular assay system: growth inhibition (cell count), Ba/F3 T315I cell line). Conditions: concentration inhibiting growth of the cell line by 50%, read-out: IC50 activity category, T315I.
T1 construct: IC50 activity category, T315I; T315I cell line; even at 10 μM concentration; fused on or other part: P11274 (Breakpoint cluster region protein)
Type: cell-based, murine

Row | Compound | GI50 [µM]
1 | Oc1ccccc1/C=N/Nc1ncc(F)c(N2CCOCC2)n1 | < 10
2 | Cc1ccccc1/C=N/Nc1ncc(F)c(N2CCOCC2)n1 | > 10
3 | Cc1ccc(/C=N/Nc2ncc(F)c(N3CCOCC3)n2)cc1 | > 10
4 | Fc1cnc(N/N=C/c2ccccc2)nc1N1CCOCC1 | > 10
5 | O=C(Nc1cccc(C(F)(F)F)c1)c1cccc(/C=N/Nc2ncc(F)c(N3CCOCC3)n2)n1 | > 10
6 | O=C(C/C=N/Nc1ncc(F)c(N2CCOCC2)n1)Nc1cccc(C(F)(F)F)c1 | > 10
7 | Cc1cccc(Cl)c1NC(=O)C/C=N/Nc1ncc(F)c(N2CCOCC2)n1 | > 10
8 | CC(C(=O)O)c1ccc(Nc2ccc(/C=N/Nc3ncc(F)c(N4CCOCC4)n3)nc2)cc1 (centres unmarked) | > 10
9 | O=C(NNc1ncc(F)c(N2CCOCC2)n1)c1ccc(Nc2cccc(C(F)(F)F)c2)cn1 | < 1
10 | Cc1cc(Nc2cccc(C(F)(F)F)c2)ccc1/C=N/Nc1ncc(F)c(N2CCOCC2)n1 | > 10
11 | CN(C)c1cc(O)cc(Nc2ccc(/C=N/Nc3ncc(F)c(N4CCOCC4)n3)nc2)c1 | < 1
12 | Fc1cnc(N/N=C/c2ccc(Nc3cccc(C(F)(F)F)c3)cn2)nc1-c1cncc(-c2ccccc2)c1 | < 1
13 | Fc1cnc(N/N=C/c2ccc(Nc3cccc(C(F)(F)F)c3)cn2)nc1-c1cncc(C2CC2)c1 | < 10
14 | Oc1cccc(Nc2cccc(Nc3ccc(/C=N/Nc4ncc(F)c(N5CCOCC5)n4)nc3)c2)c1 | < 1

Now from value to compound:

Row | GI50 [µM] | Compound
15 | < 1 | Fc1cnc(N/N=C/c2ccccn2)nc1N1CCOCC1
16 | < 1 | Oc1ccc(Br)cc1/C=N/Nc1ncc(F)c(N2CCOCC2)n1
17 | < 1 | O=C(Nc1cccc(C(F)(F)F)c1)c1cc(Cl)c(O)c(/C=N\Nc2ncc(F)c(N3CCOCC3)n2)c1
18 | < 1 | O=C(Nc1cccc(C(F)(F)F)c1)c1ccc(/C=N/Nc2ncc(F)c(N3CCOCC3)n2)nc1
19 | < 1 | Fc1cnc(N/N=C/c2ccc(-c3cccc(C(F)(F)F)c3)cn2)nc1N1CCOCC1
20 | < 1 | Fc1cnc(N/N=C/c2ccc(Nc3ccc(N4CCOCC4)cc3)cn2)nc1N1CCOCC1
21 | < 1 | Fc1cnc(N/N=C/c2ccc(Nc3ccc(-c4ccccn4)c(Cl)c3)cn2)nc1N1CCOCC1
22 | < 1 | Fc1cnc(N/N=C/c2ccc(Nc3cccc(-n4ccnc4)c3)cn2)nc1N1CCOCC1
23 | < 1 | Cc1cc(Nc2ccc(/C=N/Nc3ncc(F)c(N4CCOCC4)n3)nc2)cc(N2CCNCC2)c1
